Read-outs that look alike come from different tables or passages of the source.
Tests used:
[1] = system: ATP regulated K⁺ channels; assay: Effect on ATP regulated K⁺ channels in guinea-pig cardiac cells (single channel recording, inside-out patch clamp, opening probability); format: cell-based; conditions: for Inhibition rate (%): Dose 3x10⁻⁴ M, single guinea-pig cardiac cells, inside-out patch, opening probability at 0 mV membrane potential
Experimental: According to the method described by Kakei, M., et al., ( J. Physiol., 363 441-462, 1985 ), single cardiac cells were prepared. Guinea-pigs were anesthetized with an intraperitoneally injection of pentobarbital sodium with 30 mg/kg and the chest was opened under artificial respiration. The aorta was cannulated in situ to perfuse the coronary arteries with Tyrode solution (NaCl 136.1, KCl 5.4, CaCl₂ 1.8, MgCl₂ 0.5, NaH₂PO₄ 0.33, glucose 5.5, N-2-hydroxyethylpiperazine-N′-2-ethanesulfonic acid (HEPES) 5.0, each in mM, and the pH was adjusted to 7.4 with NaOH), then the heart was dissected out and mounted on Langendorff apparatus to perfuse. After blood was washed out by Tyrode solution, the heart was perfused with the 100 ml of Ca²⁺-free Tyrode solution and then with Ca²⁺-free Tyrode solution containing 0.17 mg/ml collagenase for 5-20 minutes. Subsequently, the enzyme was washed out from the heart with the 100 ml of KB solution (taurine 10, oxalic acid 10, glutamic acid 80, KCl 25, KH₂PO₄ 10, HEPES 10, glucose 11, ethyleneglycolbis(β-aminoethylether)-N,N′-tetraacetic acid (EGTA) 0.5, each in mM, and the pH was adjusted to 7.4 with KOH) and the heart was stored in KB solution at 4°C for at least 1 hour. Before electrical recording, a part of ventricular muscle was dissected and was shaken in recording chamber (0.7 ml) filled with Tyrode solution to disperse each cells. The method of single channel electrical recording was essentially the same as described by Hamill, A., et al., (Pflugers Arch., 391 85-100, 1981 ). Glass electrodes were made from Pyrex glass capillaries by use of a puller (2 - 10 MΩ) and were heated to polish just before use. An electrode solution was KCl 5.4, NaCl 144.6, CaCl₂ 2, HEPES 5 (each in mM) and the pH was adjusted to 7.4 with NaOH. After dispersed cells sank and adhered to the bottom of recording chamber, high K⁺ solution (KCl 140, MgCl₂ 1.0, KH₂PO₄ 0.5, EGTA 1.0, HEPES 5.0, each in mM, and the pH was adjusted to 7.4 with KOH) was perfused at flow rate of 2 - 3 ml/minute. After established a high seal resistance (5 - 20 GΩ) obtained by attaching an electrode to a cell membrane and applying suction (0 - -50 cm H₂O), a channel current was detected by inside-out configuration by use of a patch clamp amplifier (8900, DAGAN) at a filter setting of 1 KHz. A channel current and a membrane potential were monitored by an oscilloscope and were recorded by a datarecorder. An opening probability, that is a ratio of channel opening period to recording period, were analyzed by using a p-CLAMP (AXON) at 0 mV of a membrane potential. Compounds were dissolved in high K⁺ solution to be perfused.

male ddY mice = format: in vivo; conditions: 1 g/kg, five male ddY mice, observed for one week
Description: Five male ddY mice weighting about 25 g were orally administered once or intraperitoneally injected once with 1 g/kg of sodium (S)-5-hydroxydecanoate.

Structure (SMILES)	Inhibition rate (%) [1]	activity on ATP regulated K⁺ channels (in words) ([1]; summary of table 1, 3x10⁻⁴ M)	Acute toxicity (abnormality, death) (male ddY mice; intraperitoneally injected once)	Acute toxicity (abnormality, death) (male ddY mice; orally administered once)	inhibitory effect on ATP regulated K⁺ channels compared with racemate ([1]; comparison of the values in table 1, 3x10⁻⁴ M)
CCCCCC(O)CCCC(=O)[O-].[Na+] (racemic) [(R,S)-5-HD, Sodium 5-hydroxydecanoate]	30%				
CCCCC[C@@H](O)CCCC(=O)[O-].[Na+] [(R)-5-HD, Sodium 5-hydroxydecanoate]	10%	few activity			
CCCCC[C@H](O)CCCC(=O)[O-].[Na+] [(S)-5-HD, sodium (S)-5-hydroxydecanoate]	69%		no abnormality occurred and no animal died	no abnormality occurred and no animal died	about twice as good as racemate

From EP0410446A1, “(S)-5-hydroxydecanoic acid and its therapeutic composition” (MOCHIDA PHARMACEUTICAL CO., LTD., priority 1989, dated 1991)
